Measured values from patent US20150025012A1, “METHODS AND COMPOSITIONS FOR IDENTIFICATION, ASSESSMENT AND TREATMENT OF CANCERS ASSOCIATED WITH HEDGEHOG SIGNALING” (Infinity Pharmaceuticals, Inc., priority 2010, published 2015).

Legend:
[1] = tested on: patient derived tumor xenograft models; assay: Tumor growth in patient derived tumor xenograft models; format: in vivo, Mice
Description: Mice received daily treatment of IPI-926, M-F, for 6-10 weeks (n=10-15 per group).

Bx-PC3 tumors = assay: Growth of Bx-PC3 tumors in mice; format: in vivo; details: single agents and combination
Description: Bevacizumab, a monoclonal antibody, exerts its activity by neutralizing VEGF, a factor important of the proliferation and survival of endothelial cells. […] In the same study, the relative effect of these agents was explored by measuring the mRNA expression of PECAM-1, a marker of endothelial cells and RGS5, a marker of pericytes. […] The role of the vasculature and its supporting pericyte population in the mechanism of action of IPI-926 continues to be explored.
For in vivo studies, tumors were grown in male NCR-nu/nu mice by subcutaneous injection of 5×10^6 cells. Tumor growth was monitored using calipers. When tumors reached an approximate size of 200 mm^3, tumor bearing animals were randomized into treatment arms and administered agents or vehicles as described.

Gli1 = assay: Nuclear Gli1 immunohistochemical staining of BCC lesion biopsies pre- and post-treatment; format: in vivo, human
Experimental: For immunohistochemical (IHC) detection, tissue samples can be fixed in 10% neutral buffered formalin at room temperature before processing for paraffin embedding. The length of fixation depends on the size of the tissue, for example, overnight but not more than 22-24 hours for large tissues; and no more than 2 hours for small core or needle biopsies. The fixed tissues are sectioned to 7 microns […] and mounted on Superfrost Microscope™ slides (Fisher Scientific).
Prior to incubation with anti-Gli1 antibody, antigen retrieval can be performed to break the protein cross-links formed by formalin fixation and thereby reveal hidden antigens. Antigen retrieval buffers with different buffer compositions and pH are commercially available, for example, CC1 (Tris/EDTA, pH 8.0; Ventana, Cat. No. 950-124); CC2 (citrate, pH 6.0; Ventana, Cat. No. 950-123); citrate buffer (pH 6.0; Invitrogen, Cat. No. 00-5000); Target Retrieval Solution (citrate, pH 6.1; Dako, Cat. No. S170084); Target Retrieval Solution (Tris/EDTA, pH 9.0; Dako, Cat. No. S236884); Diva Decloaker (citrate, pH 6.2; Biocare, Cat. No. DV2004 mM); and EDTA Decloaker (EDTA based, pH 8.5; Biocare, Cat. No. CB917 L).
Anti-Gli1 antibodies that can be used to detect nuclear Gli1 protein in tumor samples are commercially available. Exemplary anti-Gli1 antibodies include, e.g., rabbit polyclonal and monoclonal antibody from Cell Signaling Technology (Cat. Nos. 2553 and 3538, respectively); rabbit polyclonal antibody (H-300) from Santa Cruz Biotechnology (Cat. No. se-20687, described in Chung et al., J. Clin. Oncol. 2011; 29(10):1326-34); rabbit polyclonal antibody from Abcam (Cat. No. ab92611); rabbit polyclonal antibody from Abnova (Cat. No. PAB10214); rabbit polyclonal antibody from GenWay Biotech (Cat. No. 18-732-292074); rabbit polyclonal antibody from LifeSpan BioSciences (Cat. No. LS-C66529-50); rabbit polyclonal antibody from Novus Biologicals (Cat. No. NBP1-03294); mouse polyclonal antibody from ProSci (Cat. No. 49-519); goat polyclonal antibody from R&D Systems (Cat. No. AF3455); and rabbit polyclonal antibody from United States Biological (Cat. No. G2035-51A).
Detection of tumor nuclear Gli1 staining in basal cell carcinomas (BCC) was performed using the protocols described in Example 9. FIGS. 23C and 23D show nuclear staining of Gli1 in biopsy samples of a BCC lesion pre- and 22-day post-treatment of IPI-926.
The definition of H-score is known in the art, e.g., as described in Detre, S. et al. (1995) J. Clin. Pathol. […] The intensity in the malignant cell nuclei can be scored as 0, 1, 2, or 3. […] The total number of cells in each field and the number of cells stained at each intensity are counted. The average percentage positive can be calculated and analyzed as described in Detre, S. et al. (1995) supra.

[2] = tested on: Basal Cell Carcinoma (BCC) lesion; assay: BCC lesion in a patient before and after treatment; format: in vivo, human; details: six months after treatment
Gli1 mRNA = assay: Real-time RT-PCR of Gli1 mRNA in laser capture microdissected BCC tumor samples; format: in vivo, human; details: post-treatment versus pre-treatment, BCC patients
Experimental: As a comparison, real-time RT-PCR was performed using RNA extracted from Laser Capture Microdissected tumor samples from BCC patients. The ddCt method was used to calculate the real-time PCR results (Livak K. J. et al. (2001) Methods. 25(4):402-8). FIG. 27 is a bar graph depicting the quantitation of Gli1 mRNA pre- and post treatment with IPI-926. Although a decrease level of Gli1 mRNA is detected post-treatment, the level of reduction is not as pronounced as that detected by evaluating nuclear localization of Gli1.

tumor stroma [3] = assay: Microvascular density (CD31 IHC) in tumor; format: in vivo; details: after treatment with IPI-926
tumor stroma [4] = assay: Uptake of imaging marker Gd-DTPA (DCE-MRI) and fluorescent drug and protein in tumors; format: in vivo; details: IPI-926 treated tumors
[5] = tested on: human cell lines derived from patients with cancer; details: pancreatic cancer, medulloblastoma, lung cancer, multiple myeloma, leukemias, lymphomas; cited from earlier work
[6] = tested on: preclinical in vivo tumor models; details: medulloblastoma, SCLC, NSCLC, skin, head and neck, ovarian cancer; cited from earlier work
[7] = daily treatment M-F for 6-10 weeks, multiple models
[8] = post treatment versus pre treatment BCC sample

SMILES: CC1=C2C[C@H]3[C@@H](CC[C@@H]4C[C@H](NS(C)(=O)=O)CC[C@@]43C)[C@@H]2CC[C@@]2(C1)O[C@@H]1C[C@H](C)CN[C@H]1[C@H]2C [IPI-926]
- changes in morphology ([1]; FIGS. 22A-22D micrographs): loss of tumor cells and calcification of the chondroid matrix
- mean tumor growth inhibition [1, 7]: 43%
- range of tumor growth inhibition [1, 7]: 33-52%
- activity on the growth of Bx-PC3 tumors (Bx-PC3 tumors): approximately the same single agent activity
- overall reduction of Gli1 protein staining (Gli1; [8]): 57%
- reduction in nuclear Gli1 stain (Gli1; [8]): 60%
- nuclei stained positive for Gli1 (Gli1; post-treatment (27% before treatment)): 16%
- H-score of Gli1 staining (Gli1; post-treatment (100 before treatment)): 57
- size and morphology of BCC lesion [2]: dramatic reduction
- level of Gli1 mRNA (Gli1 mRNA): decrease
- microvascular density (MVD, CD31 IHC) (tumor stroma [3]): increased
- uptake of imaging marker Gd-DTPA and fluorescent drug and protein (doxorubicin, lectin) (tumor stroma [4]): increased uptake
- in vitro growth of human cell lines [5]: inhibit
- tumor growth in preclinical in vivo models [6]: tumor growth inhibition
